# Measurements: BindingDB's records for doi:10.1016/j.bmc.2008.04.010 (Astellas Pharma, 2008)
# Target: T1, Glycogen phosphorylase, liver form (Homo sapiens, UniProt P06737)
# T1 sequence (P06737 whole entry): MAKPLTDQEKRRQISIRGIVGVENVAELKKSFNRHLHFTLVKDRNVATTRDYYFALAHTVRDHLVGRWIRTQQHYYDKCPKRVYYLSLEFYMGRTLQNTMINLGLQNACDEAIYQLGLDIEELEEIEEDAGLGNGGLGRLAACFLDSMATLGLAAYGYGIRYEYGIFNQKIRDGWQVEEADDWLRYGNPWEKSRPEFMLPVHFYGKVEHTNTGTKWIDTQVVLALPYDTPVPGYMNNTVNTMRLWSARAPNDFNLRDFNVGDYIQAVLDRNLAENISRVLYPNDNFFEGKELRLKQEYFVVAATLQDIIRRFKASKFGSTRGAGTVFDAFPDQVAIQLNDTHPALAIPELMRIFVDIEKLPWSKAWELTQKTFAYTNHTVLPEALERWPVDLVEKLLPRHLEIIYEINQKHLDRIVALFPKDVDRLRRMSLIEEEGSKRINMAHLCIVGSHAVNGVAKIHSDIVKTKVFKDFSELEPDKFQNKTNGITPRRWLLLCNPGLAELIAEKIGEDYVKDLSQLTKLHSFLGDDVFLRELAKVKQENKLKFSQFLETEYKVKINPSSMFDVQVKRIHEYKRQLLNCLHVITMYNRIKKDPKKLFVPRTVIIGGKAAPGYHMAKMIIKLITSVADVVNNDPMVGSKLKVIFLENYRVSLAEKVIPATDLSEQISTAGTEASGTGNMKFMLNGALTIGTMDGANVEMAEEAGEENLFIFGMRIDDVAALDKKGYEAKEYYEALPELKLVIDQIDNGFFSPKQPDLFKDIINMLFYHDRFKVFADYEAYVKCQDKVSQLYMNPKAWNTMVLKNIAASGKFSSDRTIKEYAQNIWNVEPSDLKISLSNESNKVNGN
# Assay: Glycogen Phosphorylase Activity Assay
# Settings: pH 6.8; 22 °C
# Experimental: The activity of recombinant human liver GPa in the forward direction was measured by monitoring the production of NADPH. Enzyme activity was assayed at pH 6.8 in phosphate buffer containing beta-NADP, alpha -glucose 1,6-bisphosphate, glucose-6-phophate dehydrogenase, phosphoglucomutase, glycogen, and glucose. […] The reaction was started by adding hLGPa solution (beta-glycerophosphate and cystein, pH 6.8). The reaction took place at room temperature, and the conversion of oxidized beta-NADP to reduced beta-NADPH was measured at 340 nm for 2 h. The hLGPa inhibition IC50 values were calculated using the logistic regression method and SAS software.
row,IC50 [nM],Compound
1,420,"O=C(Nc1ccc(C(O)CO)cc1F)c1cc2cc(Cl)ccc2[nH]1 (stereo not drawn) [5-chloroindolecarboxamide, 9b]"
2,1100,"O=C(Nc1ccc(C(O)CO)cc1Cl)c1cc2cc(Cl)ccc2[nH]1 (stereo not drawn) [5-chloroindolecarboxamide, 9c]"
3,340,"O=C(Nc1ccc(C(O)CO)c(F)c1)c1cc2cc(Cl)ccc2[nH]1 (stereo not drawn) [5-chloroindolecarboxamide, 9g]"
